Where “and” joins values, the source holds several entries; their conditions need not be identical. Equal entries are not always repeated. Toxic doses and inconclusive results are not listed.
Tested on: BDF1 mice, P388 leukemia ip, median survival T/C
Assay: NCI In Vivo Anticancer Drug Screen. Data for tumor model P388 Leukemia (intraperitoneal) in B6D2F1 (BDF1) mice
Conditions: endpoint: median survival time, higher = longer survival
Procedure, shortened: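 Read-out is survival of treated animals expressed relative to the vehicle group, as a T/C ratio.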

[1] = dose: 50.0 mg/kg/injection, schedule: Q01DX009 (ip), vehicle: saline with Tween-80
[2] = dose: 100.0 mg/kg/injection, schedule: Q01DX009 (ip), vehicle: saline with Tween-80
[3] = dose: 200.0 mg/kg/injection, schedule: Q01DX009 (ip), vehicle: saline with Tween-80
[4] = dose: 200.0 mg/kg/injection, schedule: Q04DX003 (ip), vehicle: saline
[5] = dose: 100.0 mg/kg/injection, schedule: Q01DX009 (ip), vehicle: Klucel (hydroxypropylcellulose) (HPC)
[6] = dose: 100.0 mg/kg/injection, schedule: Q04DX003 (ip), vehicle: Klucel (hydroxypropylcellulose) (HPC)
[7] = dose: 200.0 mg/kg/injection, schedule: Q01DX009 (ip), vehicle: Klucel (hydroxypropylcellulose) (HPC)
[8] = dose: 400.0 mg/kg/injection, schedule: Q01DX009 (ip), vehicle: Klucel (hydroxypropylcellulose) (HPC)
[9] = dose: 50.0 mg/kg/injection, schedule: Q04DX003 (ip), vehicle: saline with Tween-80
[10] = dose: 100.0 mg/kg/injection, schedule: Q04DX003 (ip), vehicle: saline with Tween-80
[11] = dose: 200.0 mg/kg/injection, schedule: Q04DX003 (ip), vehicle: saline with Tween-80

Question: With `NC(=O)CCC(N)C(=O)O.[Cl-].[Cl-].[Cl-].[Cl-].[Pt+2]` (configuration not stated) as the compound, how does the T/C (dose: 1.56 mg/kg/injection, schedule: Q01DX009 (ip), vehicle: saline) read?
Answer: 106 % of control

Question: What about the T/C (dose: 3.13 mg/kg/injection, schedule: Q01DX009 (ip), vehicle: saline) of the same compound?
Answer: 107 % of control

Question: And the T/C (dose: 6.25 mg/kg/injection, schedule: Q01DX009 (ip), vehicle: saline)?
Answer: 124 % of control

Question: And the T/C (dose: 12.5 mg/kg/injection, schedule: Q01DX009 (ip), vehicle: saline)?
Answer: 153 % of control

Question: What about the T/C (dose: 25.0 mg/kg/injection, schedule: Q01DX009 (ip), vehicle: saline) of the same compound?
Answer: 172 % of control

Question: `CCCCCC1(C)OCC(C)O1` (configuration not stated) was tested. Which T/C [1] did it give?
Answer: 101 % of control

Question: And the T/C [2]?
Answer: 106 % of control

Question: What about the T/C [3] of the same compound?
Answer: 109 % of control

Question: Which results are given for `CC1(C)C(=O)C(C)(C)C1=NO`?
Answer: T/C (dose: 100.0 mg/kg/injection, schedule: Q04DX003 (ip), vehicle: saline): 95 % of control; T/C [4]: 100 % of control; T/C (dose: 400.0 mg/kg/injection, schedule: Q04DX003 (ip), vehicle: saline): 95 % of control

Question: How did the T/C [1] turn out when `[O-][Cl+3]([O-])([O-])O.[O-][n+]1c2ccccc2nc2ccccc21.[Zn+2]` was run?
Answer: 123 % of control

Question: What does the source list for `CCOC(=O)/C(C#N)=C/c1ccc(O)c(OC)c1`?
Answer: T/C [5]: 105 % of control; T/C [6]: 95 % of control; T/C [7]: 110 % of control; T/C (dose: 200.0 mg/kg/injection, schedule: Q04DX003 (ip), vehicle: Klucel (hydroxypropylcellulose) (HPC)): 100 % of control; T/C [8]: 95 % of control; T/C (dose: 400.0 mg/kg/injection, schedule: Q04DX003 (ip), vehicle: Klucel (hydroxypropylcellulose) (HPC)): 100 % of control

Question: `CN(C)c1ccc(C(=C2C=CC(=[N+](C)C)C=C2)c2ccccc2Cl)cc1` was tested. Which T/C (dose: 5.0 mg/kg/injection, schedule: Q01DX010 (ip), vehicle: saline) did it give?
Answer: 110 % of control

Question: For `n1nc(Nc2nn[nH]n2)n[nH]1`, which T/C (dose: 50.0 mg/kg/injection, schedule: Q01DX009 (ip), vehicle: Klucel (hydroxypropylcellulose) (HPC)) is on record?
Answer: 90 % of control

Question: And the T/C [5]?
Answer: 107 % of control

Question: And the T/C [7]?
Answer: 110 % of control

Question: For `O=C(COC1CCCCC1)OC1CCCCC1`, which T/C (dose: 25.0 mg/kg/injection, schedule: Q01DX009 (ip), vehicle: saline with Tween-80) is on record?
Answer: 100 % of control

Question: What about the T/C [1] of the same compound?
Answer: 113 % of control

Question: What about the T/C [2] of the same compound?
Answer: 118 % of control

Question: For `O=C(CN1C(=O)c2ccccc2C1=O)c1ccc(C(F)(F)F)cc1`, which T/C (dose: 50.0 mg/kg/injection, schedule: Q01DX001 (ip), vehicle: Klucel (hydroxypropylcellulose) (HPC)) is on record?
Answer: 96 % of control

Question: And the T/C (dose: 100.0 mg/kg/injection, schedule: Q01DX001 (ip), vehicle: Klucel (hydroxypropylcellulose) (HPC))?
Answer: 105 % of control

Question: And the T/C (dose: 200.0 mg/kg/injection, schedule: Q01DX001 (ip), vehicle: Klucel (hydroxypropylcellulose) (HPC))?
Answer: 88 % of control

Question: For `CCCCOCN1CCCCC1`, which T/C [9] is on record?
Answer: 108 % of control

Question: And the T/C [10]?
Answer: 120 % of control

Question: What about the T/C [11] of the same compound?
Answer: 104 % of control

Question: What does the source list for `[NH-]C(CCC(N)=O)C(=O)O.[NH-]C(CCC(N)=O)C(=O)O.[Pt+2]` (configuration not stated)?
Answer: T/C (dose: 12.5 mg/kg/injection, schedule: Q01DX009 (ip), vehicle: distilled water + Tween-80): 100 % of control; T/C (dose: 25.0 mg/kg/injection, schedule: Q01DX009 (ip), vehicle: distilled water + Tween-80): 100 % of control; T/C (dose: 50.0 mg/kg/injection, schedule: Q01DX009 (ip), vehicle: distilled water + Tween-80): 100 % of control; T/C (dose: 100.0 mg/kg/injection, schedule: Q01DX009 (ip), vehicle: distilled water + Tween-80): 113 % of control

Question: What does the source list for `CC(=O)[C@H]1[C@H](C)C[C@H]2[C@@H]3CCC4=CC(=O)CC[C@]4(C)[C@@]3(F)[C@@H](O)C[C@@]21C`?
Answer: T/C [5]: 105 % of control; T/C (dose: 100.0 mg/kg/injection, schedule: Q04DX003 (ip), vehicle: alcohol): 120 % of control; T/C (dose: 132.0 mg/kg/injection, schedule: Q04DX003 (ip), vehicle: saline): 115 % of control; T/C [7]: 120 % of control; T/C [4]: 104 % of control and 120 % of control; T/C (dose: 300.0 mg/kg/injection, schedule: Q04DX003 (ip), vehicle: saline): 110 % of control and 113 % of control; T/C [8]: 120 % of control; T/C (dose: 400.0 mg/kg/injection, schedule: Q04DX003 (ip), vehicle: alcohol): 105 % of control

Question: With `O=C(Cn1ccnc1[N+](=O)[O-])NCc1ccccc1` as the compound, how does the T/C [1] read?
Answer: 99 % of control

Question: And the T/C [2]?
Answer: 94 % of control

Question: What about the T/C [3] of the same compound?
Answer: 100 % of control

Question: Which results are given for `O=C(O)C(Br)(C(=O)O)c1ccccc1`?
Answer: T/C (dose: 100.0 mg/kg/injection, schedule: Q04DX002 (ip), vehicle: saline with Tween-80): 93 % of control; T/C (dose: 200.0 mg/kg/injection, schedule: Q04DX002 (ip), vehicle: saline with Tween-80): 97 % of control; T/C (dose: 400.0 mg/kg/injection, schedule: Q04DX002 (ip), vehicle: saline with Tween-80): 93 % of control

Question: With `NC(=O)OCc1c(O)c2c(c(O)c1COC(N)=O)C(=O)C=CC2=O` as the compound, how does the T/C (dose: 12.5 mg/kg/injection, schedule: Q01DX009 (ip), vehicle: water) read?
Answer: 111 % of control

Question: What about the T/C (dose: 12.5 mg/kg/injection, schedule: Q04DX003 (ip), vehicle: water) of the same compound?
Answer: 100 % of control

Question: What about the T/C (dose: 25.0 mg/kg/injection, schedule: Q01DX009 (ip), vehicle: water) of the same compound?
Answer: 92 % of control

Question: What about the T/C (dose: 25.0 mg/kg/injection, schedule: Q04DX003 (ip), vehicle: water) of the same compound?
Answer: 104 % of control

Question: And the T/C (dose: 50.0 mg/kg/injection, schedule: Q01DX009 (ip), vehicle: water)?
Answer: 104 % of control

Question: What about the T/C (dose: 50.0 mg/kg/injection, schedule: Q04DX003 (ip), vehicle: water) of the same compound?
Answer: 101 % of control

Question: What about the T/C (dose: 100.0 mg/kg/injection, schedule: Q04DX003 (ip), vehicle: water) of the same compound?
Answer: 100 % of control

Question: What about the T/C (dose: 200.0 mg/kg/injection, schedule: Q04DX003 (ip), vehicle: water) of the same compound?
Answer: 102 % of control and 113 % of control

Question: And the T/C (dose: 300.0 mg/kg/injection, schedule: Q04DX003 (ip), vehicle: water)?
Answer: 95 % of control

Question: And the T/C (dose: 400.0 mg/kg/injection, schedule: Q04DX003 (ip), vehicle: water)?
Answer: 108 % of control

Question: Which T/C [1] does the source give for `NC(=O)c1ncn[nH]1` here?
Answer: 95 % of control

Question: What about the T/C [9] of the same compound?
Answer: 104 % of control

Question: And the T/C [2]?
Answer: 87 % of control

Question: What about the T/C [10] of the same compound?
Answer: 100 % of control

Question: What about the T/C [3] of the same compound?
Answer: 104 % of control

Question: What about the T/C [11] of the same compound?
Answer: 100 % of control

Question: Which results are given for `COc1cc2cc3cc4cc(OC)c(OC)cc4c(C)[n+]3cc2cc1OC` (tested in a mixture with another compound)?
Answer: T/C (dose: 10.0 mg/kg/injection, schedule: Q01DX009 (ip), vehicle: Klucel (hydroxypropylcellulose) (HPC)): 163 % of control; T/C (dose: 20.0 mg/kg/injection, schedule: Q01DX009 (ip), vehicle: Klucel (hydroxypropylcellulose) (HPC)): 155 % of control; T/C (dose: 20.0 mg/kg/injection, schedule: Q01DX009 (ip), vehicle: saline): 180 % of control; T/C (dose: 40.0 mg/kg/injection, schedule: Q01DX009 (ip), vehicle: Klucel (hydroxypropylcellulose) (HPC)): 163 % of control; T/C (dose: 40.0 mg/kg/injection, schedule: Q01DX009 (ip), vehicle: saline): 150 % of control; T/C (dose: 40.0 mg/kg/injection, schedule: Q04DX003 (ip), vehicle: saline): 154 % of control and 166 % of control; T/C (dose: 80.0 mg/kg/injection, schedule: Q01DX009 (ip), vehicle: Klucel (hydroxypropylcellulose) (HPC)): 163 % of control; T/C (dose: 80.0 mg/kg/injection, schedule: Q01DX009 (ip), vehicle: saline): 180 % of control; T/C (dose: 80.0 mg/kg/injection, schedule: Q04DX003 (ip), vehicle: saline): 157 % of control; T/C (dose: 120.0 mg/kg/injection, schedule: Q01DX009 (ip), vehicle: saline): 150 % of control; T/C (dose: 160.0 mg/kg/injection, schedule: Q01DX009 (ip), vehicle: Klucel (hydroxypropylcellulose) (HPC)): 154 % of control; T/C (dose: 160.0 mg/kg/injection, schedule: Q01DX009 (ip), vehicle: saline): 200 % of control; T/C (dose: 160.0 mg/kg/injection, schedule: Q04DX003 (ip), vehicle: saline): 154 % of control; T/C (dose: 168.0 mg/kg/injection, schedule: Q04DX003 (ip), vehicle: saline): 99 % of control; T/C (dose: 250.0 mg/kg/injection, schedule: Q04DX003 (ip), vehicle: saline): 92 % of control

Question: Which T/C (dose: 3.12 mg/kg/injection, schedule: Q01DX001 (ip), vehicle: Klucel (hydroxypropylcellulose) (HPC)) does the source give for `CCOC(=O)NC1=C(N2CC2C)C(=O)C(NC(=O)OCC)=C(N2CC2C)C1=O` (configuration not stated) here?
Answer: 123 % of control

Question: And the T/C (dose: 12.5 mg/kg/injection, schedule: Q01DX001 (ip), vehicle: Klucel (hydroxypropylcellulose) (HPC))?
Answer: 113 % of control

Question: For `CCCCCCCCCCCCCCCCCCNC(=S)N/N=C/c1ccc(Cl)cc1Cl`, which T/C (dose: 50.0 mg/kg/injection, schedule: Q04DX003 (ip), vehicle: Klucel (hydroxypropylcellulose) (HPC)) is on record?
Answer: 105 % of control

Question: What about the T/C [6] of the same compound?
Answer: 90 % of control

Question: And the T/C [10]?
Answer: 100 % of control

Question: And the T/C [11]?
Answer: 100 % of control

Question: And the T/C (dose: 400.0 mg/kg/injection, schedule: Q04DX003 (ip), vehicle: saline with Tween-80)?
Answer: 100 % of control
